In the Biogen ADME set (Fang et al. 2023):
Values after ≈ are worked out from the molar mass of the structure shown.

Details: for aqueous solubility: pH 6.8

Cc1cc(C(=O)N(C)CC2CCN(CCO)CC2)cc(C)n1
MDR1-MDCK efflux ratio: 1.95 | intrinsic clearance, human liver microsomes: 7.92 mL/min/kg | intrinsic clearance, rat liver microsomes: 29.2 mL/min/kg

O=C(Nc1ccc(-c2nnn[nH]2)cc1)c1cc(COc2ccc(F)cc2)on1
aqueous solubility: 16.4 µg/mL (≈ 43 µM)

CCCS(=O)(=O)NC1CCN(Cc2ccc(C)c(OC)c2)CC1
MDR1-MDCK efflux ratio: 1.43 | intrinsic clearance, human liver microsomes: 16.5 mL/min/kg | intrinsic clearance, rat liver microsomes: 798 mL/min/kg

CCOc1ccc2c(c1)cc(CN1CCSCC1)c1nn(C)c(=O)n12
intrinsic clearance, human liver microsomes: 88.1 mL/min/kg | intrinsic clearance, rat liver microsomes: 604 mL/min/kg

Cc1nc(-c2ccc(Cl)c(Cl)c2)n(CC(C)(C)O)n1
MDR1-MDCK efflux ratio: 0.634 | intrinsic clearance, human liver microsomes: ≤ 4.74 mL/min/kg | intrinsic clearance, rat liver microsomes: ≤ 10.7 mL/min/kg | aqueous solubility: 41.9 µg/mL (≈ 140 µM)

CC(C)CC(=O)N1CCC(Cc2cccc(-c3cncnc3)c2)(C(=O)NC(C)C)CC1
MDR1-MDCK efflux ratio: 71.8 | intrinsic clearance, human liver microsomes: 199 mL/min/kg | intrinsic clearance, rat liver microsomes: 694 mL/min/kg | aqueous solubility: 137 µg/mL (≈ 324 µM)

COCC1(CNS(=O)(=O)c2ccc3[nH]cnc3c2)CCC1
MDR1-MDCK efflux ratio: 32.8 | intrinsic clearance, human liver microsomes: 16.2 mL/min/kg | intrinsic clearance, rat liver microsomes: 860 mL/min/kg

Cc1cc(CSCc2ccc(C#N)cc2)no1
intrinsic clearance, human liver microsomes: 76.4 mL/min/kg | intrinsic clearance, rat liver microsomes: 1010 mL/min/kg

O=S(=O)(NCCC(c1ccccc1)c1ccccc1)c1ccc(Cl)cc1
intrinsic clearance, human liver microsomes: 396 mL/min/kg | intrinsic clearance, rat liver microsomes: 9320 mL/min/kg

CC(C)c1c(-c2ccccc2)[n+]([O-])c2c([n+]1[O-])CCC2
intrinsic clearance, human liver microsomes: ≤ 4.74 mL/min/kg | intrinsic clearance, rat liver microsomes: 14.3 mL/min/kg

OCc1nnc(SCCSC2CCCCC2)n1C1CC1
MDR1-MDCK efflux ratio: 1.96 | intrinsic clearance, human liver microsomes: 29 mL/min/kg | intrinsic clearance, rat liver microsomes: 728 mL/min/kg

c1ccc(CO[C@@H]2CCC[C@H]2n2cc(-c3nccs3)nn2)cc1
MDR1-MDCK efflux ratio: 0.658 | intrinsic clearance, human liver microsomes: 63.2 mL/min/kg | intrinsic clearance, rat liver microsomes: 3020 mL/min/kg | aqueous solubility: 15.7 µg/mL (≈ 48 µM)

Cc1cc(C)c(-n2cccn2)c(-c2cn(C[C@@H]3CCCO3)nn2)c1
MDR1-MDCK efflux ratio: 1.18 | intrinsic clearance, human liver microsomes: 68 mL/min/kg | intrinsic clearance, rat liver microsomes: 507 mL/min/kg | aqueous solubility: 26.4 µg/mL (≈ 81.7 µM)

COCCc1nsc(Oc2ccc(C)cc2Br)n1
MDR1-MDCK efflux ratio: 0.578 | intrinsic clearance, human liver microsomes: 148 mL/min/kg | intrinsic clearance, rat liver microsomes: 4590 mL/min/kg

Nc1c(-c2ccc(F)cc2)ncn1Cc1ccccc1
intrinsic clearance, human liver microsomes: 14.6 mL/min/kg | intrinsic clearance, rat liver microsomes: 372 mL/min/kg

OCCCCCn1cc(-c2ccccc2-c2ccco2)nn1
MDR1-MDCK efflux ratio: 1.08 | intrinsic clearance, human liver microsomes: 34 mL/min/kg | intrinsic clearance, rat liver microsomes: 235 mL/min/kg | aqueous solubility: 11.1 µg/mL (≈ 37.3 µM)

C#CCN1CCC(c2nc(Cc3noc(C)n3)no2)CC1
MDR1-MDCK efflux ratio: 0.732 | intrinsic clearance, human liver microsomes: ≤ 4.74 mL/min/kg | intrinsic clearance, rat liver microsomes: 12.8 mL/min/kg | aqueous solubility: 49.5 µg/mL (≈ 172 µM)

O=C(Cc1ccc2c(c1)CCC2)Nc1nc2ccccc2o1
MDR1-MDCK efflux ratio: 0.499 | intrinsic clearance, human liver microsomes: 113 mL/min/kg | intrinsic clearance, rat liver microsomes: 1540 mL/min/kg | aqueous solubility: 3.63 µg/mL (≈ 12.4 µM)

COc1cc(OC)c(OC)cc1CNC(C)(C)C
MDR1-MDCK efflux ratio: 4.78 | intrinsic clearance, human liver microsomes: ≤ 4.74 mL/min/kg | intrinsic clearance, rat liver microsomes: 110 mL/min/kg

c1sc(NCC2CCCO2)nc1C12CC3CC(CC(C3)C1)C2 (stereo not given)
MDR1-MDCK efflux ratio: 0.537 | fraction unbound, human plasma: 0.0008 | intrinsic clearance, human liver microsomes: 45.7 mL/min/kg

CCCCN(CC)c1nc(C)nc2c1c(C)c(C)n2-c1c(C)cc(C)cc1C
intrinsic clearance, human liver microsomes: 198 mL/min/kg | intrinsic clearance, rat liver microsomes: 1380 mL/min/kg

Cc1cccc(NC(=O)CN(C)c2ncccc2F)n1
MDR1-MDCK efflux ratio: 0.657 | intrinsic clearance, human liver microsomes: 16.2 mL/min/kg | intrinsic clearance, rat liver microsomes: 404 mL/min/kg | aqueous solubility: 36.8 µg/mL (≈ 134 µM)

CC(C)(O)CNc1ncc(-c2ccnc(Nc3ccnc(Cl)c3)n2)c(CC2CC2)n1
MDR1-MDCK efflux ratio: 10.5 | intrinsic clearance, human liver microsomes: 23.6 mL/min/kg | intrinsic clearance, rat liver microsomes: 149 mL/min/kg | aqueous solubility: 21.9 µg/mL (≈ 51.5 µM)

CN(C)Cc1ccnc(NC(=O)c2ccsc2)c1
intrinsic clearance, human liver microsomes: 6.67 mL/min/kg | intrinsic clearance, rat liver microsomes: 397 mL/min/kg

CN(C)CC(=O)N1CCC(c2ccc(NC(=O)c3nc(C#N)c[nH]3)c(C3=CCCCC3)c2)CC1
MDR1-MDCK efflux ratio: 42.6 | intrinsic clearance, human liver microsomes: 12.4 mL/min/kg | intrinsic clearance, rat liver microsomes: 56.3 mL/min/kg

N[C@H](Cc1c[nH]c2ccccc12)C(=O)N/N=C/c1ccc2nccnc2c1
MDR1-MDCK efflux ratio: 13.4 | intrinsic clearance, human liver microsomes: 17.2 mL/min/kg | intrinsic clearance, rat liver microsomes: 55.8 mL/min/kg | aqueous solubility: 40.3 µg/mL (≈ 112 µM)

Cc1ccc(Cl)c(OC[C@@]2(O)CN(C3CCCC3)CC[C@@H]2O)c1
MDR1-MDCK efflux ratio: 1.03 | intrinsic clearance, human liver microsomes: 325 mL/min/kg | intrinsic clearance, rat liver microsomes: 2250 mL/min/kg

O=C(Nc1ccn(-c2ncccc2Cl)n1)c1csnn1
aqueous solubility: 28.5 µg/mL (≈ 92.9 µM)

CC(C)c1nccn1-c1cccc([C@@H]2CCCN2C(=O)CCc2ccccc2)n1
MDR1-MDCK efflux ratio: 10.2 | intrinsic clearance, human liver microsomes: 557 mL/min/kg | intrinsic clearance, rat liver microsomes: 1060 mL/min/kg | aqueous solubility: 51 µg/mL (≈ 131 µM)

O=c1c2oc3ccccc3c2ncn1Cc1ccc(Cl)cc1
MDR1-MDCK efflux ratio: 0.573 | intrinsic clearance, human liver microsomes: 103 mL/min/kg | intrinsic clearance, rat liver microsomes: 906 mL/min/kg

COc1c(C)cnc(CN(C)S(N)(=O)=O)c1C
MDR1-MDCK efflux ratio: 1.91 | intrinsic clearance, human liver microsomes: ≤ 4.74 mL/min/kg | intrinsic clearance, rat liver microsomes: 82 mL/min/kg | aqueous solubility: 30.6 µg/mL (≈ 118 µM)

CCCc1nnc(N2CCC3(CCCC3)C2)s1
MDR1-MDCK efflux ratio: 0.525 | intrinsic clearance, human liver microsomes: 86.7 mL/min/kg | intrinsic clearance, rat liver microsomes: 2160 mL/min/kg

CC(C)(C=C(C#N)C(=O)N1CCC[C@@H](n2nc(-c3ccc(Oc4ccccc4)cc3F)c3c(N)ncnc32)C1)N1CCN(C2COC2)CC1
MDR1-MDCK efflux ratio: 35.9 | fraction unbound, human plasma: 0.0189 | fraction unbound, rat plasma: 0.0133 | intrinsic clearance, human liver microsomes: 535 mL/min/kg | intrinsic clearance, rat liver microsomes: 1140 mL/min/kg | aqueous solubility: 35.8 µg/mL (≈ 53.7 µM)

NCCOc1cccc(CC(=O)N2CCC(F)(F)CC2)c1
MDR1-MDCK efflux ratio: 19.4 | intrinsic clearance, human liver microsomes: ≤ 4.74 mL/min/kg | intrinsic clearance, rat liver microsomes: ≤ 10.7 mL/min/kg

COc1cccc(NC(=O)CNc2cccc(-c3ccnc(C)n3)c2)c1
MDR1-MDCK efflux ratio: 2.39 | intrinsic clearance, human liver microsomes: 61.2 mL/min/kg | intrinsic clearance, rat liver microsomes: 250 mL/min/kg | aqueous solubility: 50.5 µg/mL (≈ 145 µM)

CC(=O)Nc1cnn(CC2CCN(C)CC2)c1
MDR1-MDCK efflux ratio: 3.56 | intrinsic clearance, human liver microsomes: ≤ 4.74 mL/min/kg | intrinsic clearance, rat liver microsomes: ≤ 10.7 mL/min/kg | aqueous solubility: 23.5 µg/mL (≈ 99.4 µM)

CCOc1ccc(CNC(=O)Cn2ccc3cc(S(=O)(=O)N4CCCC4)ccc32)cc1
MDR1-MDCK efflux ratio: 11.9 | intrinsic clearance, human liver microsomes: 423 mL/min/kg | intrinsic clearance, rat liver microsomes: 2100 mL/min/kg

CNC(=O)Cn1ccc2cc(OC)ccc21
MDR1-MDCK efflux ratio: 0.664 | intrinsic clearance, human liver microsomes: ≤ 4.74 mL/min/kg | intrinsic clearance, rat liver microsomes: 99.9 mL/min/kg | aqueous solubility: 39.9 µg/mL (≈ 183 µM)

COCC(=O)Nc1cccc(-n2cccc2)c1
MDR1-MDCK efflux ratio: 0.498 | intrinsic clearance, human liver microsomes: 205 mL/min/kg | intrinsic clearance, rat liver microsomes: 129 mL/min/kg | aqueous solubility: 50.9 µg/mL (≈ 221 µM)

O=C(NCc1ccc(F)cc1)C1CCN(C(=O)/C=C/c2ccc(F)cc2)CC1
MDR1-MDCK efflux ratio: 6.14 | intrinsic clearance, human liver microsomes: ≤ 4.74 mL/min/kg | intrinsic clearance, rat liver microsomes: 106 mL/min/kg | aqueous solubility: 3.03 µg/mL (≈ 7.88 µM)

Cc1ccccc1Cn1c(=O)c2c(nc3n(-c4ccccc4O)c(C)cn23)n(C)c1=O
MDR1-MDCK efflux ratio: 21.8 | aqueous solubility: 0.91 µg/mL (≈ 2.19 µM)

CC(C)(C)c1cc(NC(=O)Nc2ccc(-c3cn4c(n3)sc3cc(OCCN5CCOCC5)ccc34)cc2)no1
aqueous solubility: 0.3 µg/mL (≈ 0.535 µM)

Cc1cc(CSCc2c(C)noc2C)no1
intrinsic clearance, human liver microsomes: 130 mL/min/kg | intrinsic clearance, rat liver microsomes: 1910 mL/min/kg

Cc1ccc(CNC(=O)c2cccnc2)n1C
MDR1-MDCK efflux ratio: 0.67 | intrinsic clearance, human liver microsomes: ≤ 4.74 mL/min/kg | intrinsic clearance, rat liver microsomes: ≤ 10.7 mL/min/kg | aqueous solubility: 40.6 µg/mL (≈ 177 µM)

O=C(Nn1cnc2ccccc21)c1c2c(nc3ccccc13)CCC2
MDR1-MDCK efflux ratio: 43.2 | intrinsic clearance, human liver microsomes: ≤ 4.74 mL/min/kg | intrinsic clearance, rat liver microsomes: ≤ 10.7 mL/min/kg | aqueous solubility: 56.7 µg/mL (≈ 173 µM)

COC(=O)c1cc(F)c(C)c(NC(=O)CCCc2ccccn2)c1
MDR1-MDCK efflux ratio: 0.785 | intrinsic clearance, human liver microsomes: 795 mL/min/kg | intrinsic clearance, rat liver microsomes: 1680 mL/min/kg | aqueous solubility: 43 µg/mL (≈ 130 µM)

CCc1nnc(NC(=O)Cc2c(C)noc2C)s1
MDR1-MDCK efflux ratio: 12.8 | intrinsic clearance, human liver microsomes: ≤ 4.74 mL/min/kg | intrinsic clearance, rat liver microsomes: ≤ 10.7 mL/min/kg | aqueous solubility: 44.6 µg/mL (≈ 167 µM)

O=C(NCCN1C(=O)CSC1=O)c1cc(Cl)c2c(c1)OCO2
MDR1-MDCK efflux ratio: 2.69 | intrinsic clearance, human liver microsomes: 13 mL/min/kg | intrinsic clearance, rat liver microsomes: 83 mL/min/kg | aqueous solubility: 39.6 µg/mL (≈ 116 µM)

CNc1ccc(/C=C/c2ccc(OCCOCCOCCF)nc2)cc1
MDR1-MDCK efflux ratio: 0.533 | intrinsic clearance, human liver microsomes: 253 mL/min/kg | intrinsic clearance, rat liver microsomes: 564 mL/min/kg

O=c1[nH]c2ccccc2n1C1CCN(CCOc2ccccc2)CC1
MDR1-MDCK efflux ratio: 2.14 | intrinsic clearance, human liver microsomes: 29.6 mL/min/kg | intrinsic clearance, rat liver microsomes: 357 mL/min/kg | aqueous solubility: 47.4 µg/mL (≈ 140 µM)

Cc1nn(CCNS(=O)(=O)N2CCOCC2)c(C)c1C
MDR1-MDCK efflux ratio: 8.58 | intrinsic clearance, human liver microsomes: 6.58 mL/min/kg | intrinsic clearance, rat liver microsomes: 265 mL/min/kg

CCCn1cc(C(=O)N2CCC(c3n[nH]cc3C(=O)N3CCOCC3)CC2)cn1
MDR1-MDCK efflux ratio: 15.3 | intrinsic clearance, human liver microsomes: ≤ 4.74 mL/min/kg | intrinsic clearance, rat liver microsomes: 11.4 mL/min/kg | aqueous solubility: 54.1 µg/mL (≈ 135 µM)

O=c1cc2c(n[nH]1)-c1cnc(N3CCCC3)nc1CC2
MDR1-MDCK efflux ratio: 0.748 | intrinsic clearance, human liver microsomes: 6.66 mL/min/kg | intrinsic clearance, rat liver microsomes: 103 mL/min/kg

Cc1cc(-c2cn(C)nc2[C@H]2CC[C@H](CNC(=O)C(C)C)CC2)on1
MDR1-MDCK efflux ratio: 30.3 | intrinsic clearance, human liver microsomes: ≤ 4.74 mL/min/kg | intrinsic clearance, rat liver microsomes: 268 mL/min/kg

COCc1ccc(-c2nc3c([nH]2)c(C)nn3C2CCCCC2)o1
intrinsic clearance, human liver microsomes: 51.8 mL/min/kg | intrinsic clearance, rat liver microsomes: 485 mL/min/kg | aqueous solubility: 38 µg/mL (≈ 121 µM)

Nc1cnc(Cc2ccc(F)cc2)nc1
MDR1-MDCK efflux ratio: 0.67 | intrinsic clearance, human liver microsomes: ≤ 4.74 mL/min/kg | intrinsic clearance, rat liver microsomes: 15.4 mL/min/kg | aqueous solubility: 38.2 µg/mL (≈ 188 µM)

CN(C)S(=O)(=O)N(C1CCCC1)C1CC1
aqueous solubility: 32.6 µg/mL (≈ 140 µM)

CCN(CC)C(=O)c1ccc(C2=CC3(CCNCC3)Oc3cccc(O)c32)cc1
MDR1-MDCK efflux ratio: 20.9 | intrinsic clearance, human liver microsomes: 9 mL/min/kg | intrinsic clearance, rat liver microsomes: 65.8 mL/min/kg
